From ChEMBL document CHEMBL1201862, “PubChem BioAssay data set” (2004)
Calls of active or inactive are those of the source.

Key:
[1] = Trypanosoma cruzi growth suppression in host cells – NIH3T3 host cells, beta-gal luminescence, confirmation (AID 2044); type: functional, cell-based;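 further: intracellular parasites grown in NIH/3T3 mouse fibroblasts as host cells; luminescent beta-galactosidase reporter signal from transgenic T. cruzi replicating inside host cells; inhibitors lower the luminescence signal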
[2] = NIH3T3 cell viability loss – ATP luminescence, mouse fibroblasts, counter-screen, dose response (AID 2010); type: functional, cell-based;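 further: cells exposed to compound for about 90 hours before reading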
cells [3] = assay: cells
cells [4] = type: functional, cell-based
cells [5] = type: functional, cell-based; remark: listed apart in the source
[6] = biological target: T1, Mannose-6-phosphate isomerase (Homo sapiens, UniProt P34949); assay: MPI inhibition at elevated mannose 6-phosphate – biochemical, fluorescence intensity, high mannose 6-phosphate, primary screen (AID 1220)
T1 sequence (P34949 whole entry): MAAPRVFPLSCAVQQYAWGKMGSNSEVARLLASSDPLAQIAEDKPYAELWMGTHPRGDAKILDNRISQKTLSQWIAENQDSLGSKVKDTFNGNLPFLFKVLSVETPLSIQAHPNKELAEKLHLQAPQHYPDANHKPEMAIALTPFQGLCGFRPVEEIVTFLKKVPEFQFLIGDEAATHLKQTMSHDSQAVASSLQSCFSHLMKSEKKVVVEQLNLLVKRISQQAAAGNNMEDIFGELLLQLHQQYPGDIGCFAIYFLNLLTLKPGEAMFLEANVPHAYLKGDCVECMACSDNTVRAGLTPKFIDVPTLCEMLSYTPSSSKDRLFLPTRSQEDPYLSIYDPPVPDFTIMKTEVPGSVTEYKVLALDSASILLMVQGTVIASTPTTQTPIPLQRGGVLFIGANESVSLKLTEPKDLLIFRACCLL

Paired box protein Pax-8 = Paired box protein Pax-8 (Homo sapiens, UniProt Q06710); assay: PAX8 transcriptional activity inhibition in RMG-I – RMG-I cells, luciferase, cherry-pick, dose response (AID 687027); type: functional, cell-based;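 further: luciferase reporter driven by Pax8 target thyroperoxidase promoter measured by SteadyGlo luminescence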
[7] = IGROV1 cell killing – plate reader, dry powder samples, PAX8 inhibitor project, dose response (AID 743043); type: functional, cell-based; settings: IGROV-1
[8] = OVCAR8 cell viability loss – plate reader, dry powder samples, PAX8 project, dose response (AID 743197); type: functional, cell-based; settings: OVCAR-8
Leucine aminopeptidase = biological target: T2, Leucine aminopeptidase (Plasmodium falciparum 3D7, UniProt Q8IL11); assay: P. falciparum M17LAP inhibitors, primary screen, biochemical, fluorogenic H-Leu-NHMec substrate, 1536-well (AID 1619); type: functional
T2 sequence (Q8IL11 whole entry): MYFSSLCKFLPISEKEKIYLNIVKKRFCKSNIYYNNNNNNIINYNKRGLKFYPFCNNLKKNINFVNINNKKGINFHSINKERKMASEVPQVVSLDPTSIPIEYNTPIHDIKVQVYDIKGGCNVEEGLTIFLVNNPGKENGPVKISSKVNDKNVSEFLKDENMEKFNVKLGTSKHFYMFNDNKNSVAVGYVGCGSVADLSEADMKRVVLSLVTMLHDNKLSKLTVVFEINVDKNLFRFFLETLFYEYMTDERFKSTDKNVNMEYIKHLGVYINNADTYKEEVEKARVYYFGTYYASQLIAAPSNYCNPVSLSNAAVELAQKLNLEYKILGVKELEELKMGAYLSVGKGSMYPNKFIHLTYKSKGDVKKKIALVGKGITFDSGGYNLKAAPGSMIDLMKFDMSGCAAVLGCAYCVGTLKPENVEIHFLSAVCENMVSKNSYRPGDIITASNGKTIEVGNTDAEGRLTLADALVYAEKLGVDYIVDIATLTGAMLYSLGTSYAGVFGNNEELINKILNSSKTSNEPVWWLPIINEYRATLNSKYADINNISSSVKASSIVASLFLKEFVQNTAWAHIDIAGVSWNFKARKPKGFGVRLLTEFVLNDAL

[9] = biological target: T3, Histone-lysine N-methyltransferase NSD2 (Homo sapiens, UniProt O96028); type: biochemical
T3 sequence (O96028 whole entry): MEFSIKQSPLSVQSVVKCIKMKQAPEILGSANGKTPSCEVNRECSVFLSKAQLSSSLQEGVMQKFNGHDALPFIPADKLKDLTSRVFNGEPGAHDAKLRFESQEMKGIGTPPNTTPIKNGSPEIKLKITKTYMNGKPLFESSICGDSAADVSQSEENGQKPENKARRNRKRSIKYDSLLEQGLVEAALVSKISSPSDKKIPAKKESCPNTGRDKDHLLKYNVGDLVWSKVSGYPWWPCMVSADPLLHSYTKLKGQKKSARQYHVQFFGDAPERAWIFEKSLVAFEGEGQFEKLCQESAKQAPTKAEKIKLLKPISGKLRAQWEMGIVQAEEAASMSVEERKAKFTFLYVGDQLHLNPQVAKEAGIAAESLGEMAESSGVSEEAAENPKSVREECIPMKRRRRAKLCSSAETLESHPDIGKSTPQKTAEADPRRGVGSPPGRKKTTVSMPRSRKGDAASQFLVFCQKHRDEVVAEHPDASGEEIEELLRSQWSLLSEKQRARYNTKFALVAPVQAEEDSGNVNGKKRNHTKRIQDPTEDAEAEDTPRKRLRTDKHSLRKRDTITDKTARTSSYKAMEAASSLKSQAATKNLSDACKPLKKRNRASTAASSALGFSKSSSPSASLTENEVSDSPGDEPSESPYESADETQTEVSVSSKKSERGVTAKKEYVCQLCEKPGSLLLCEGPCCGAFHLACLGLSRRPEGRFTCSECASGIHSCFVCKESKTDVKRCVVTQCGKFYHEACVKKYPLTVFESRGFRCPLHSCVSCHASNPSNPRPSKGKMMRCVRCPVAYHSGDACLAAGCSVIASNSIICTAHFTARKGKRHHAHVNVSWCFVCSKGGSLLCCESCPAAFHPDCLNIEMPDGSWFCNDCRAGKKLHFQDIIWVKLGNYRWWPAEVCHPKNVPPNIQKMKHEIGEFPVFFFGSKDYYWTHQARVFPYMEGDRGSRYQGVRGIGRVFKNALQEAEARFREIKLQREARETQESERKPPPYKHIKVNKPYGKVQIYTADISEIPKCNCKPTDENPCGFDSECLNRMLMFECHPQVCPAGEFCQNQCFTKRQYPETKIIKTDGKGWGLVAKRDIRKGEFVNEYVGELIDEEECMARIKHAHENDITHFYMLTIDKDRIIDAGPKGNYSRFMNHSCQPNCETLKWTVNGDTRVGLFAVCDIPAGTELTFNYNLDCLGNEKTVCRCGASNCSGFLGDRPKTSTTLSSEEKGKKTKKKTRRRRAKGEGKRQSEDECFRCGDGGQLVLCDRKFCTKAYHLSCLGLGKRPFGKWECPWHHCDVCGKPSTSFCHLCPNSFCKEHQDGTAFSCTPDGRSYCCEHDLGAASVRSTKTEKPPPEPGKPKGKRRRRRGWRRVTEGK

Estrogen receptor = biological target: T4, Estrogen receptor (Homo sapiens, UniProt P03372);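 further: potency for inhibiting coactivator peptide recruitment to the receptor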
T4 sequence (P03372 whole entry): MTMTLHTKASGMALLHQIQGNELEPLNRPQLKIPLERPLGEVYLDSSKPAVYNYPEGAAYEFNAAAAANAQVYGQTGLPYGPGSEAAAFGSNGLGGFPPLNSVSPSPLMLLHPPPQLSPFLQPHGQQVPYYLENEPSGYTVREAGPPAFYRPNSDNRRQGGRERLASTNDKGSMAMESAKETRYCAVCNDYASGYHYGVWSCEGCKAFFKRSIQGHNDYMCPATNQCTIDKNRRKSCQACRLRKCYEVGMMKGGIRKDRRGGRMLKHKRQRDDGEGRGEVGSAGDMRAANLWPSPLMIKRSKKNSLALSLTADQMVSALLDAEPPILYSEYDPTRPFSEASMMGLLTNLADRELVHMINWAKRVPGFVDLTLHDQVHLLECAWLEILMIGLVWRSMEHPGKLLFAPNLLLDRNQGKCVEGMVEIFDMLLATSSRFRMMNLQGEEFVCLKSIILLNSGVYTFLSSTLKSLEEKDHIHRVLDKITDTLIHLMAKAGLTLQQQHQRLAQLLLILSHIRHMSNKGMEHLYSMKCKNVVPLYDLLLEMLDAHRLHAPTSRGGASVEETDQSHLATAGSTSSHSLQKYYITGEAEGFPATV

[10] = biological target: T5, Microphthalmia-associated transcription factor (Homo sapiens, UniProt O75030); assay: reducers of TRPM1 reporter luminescence, concentration series – cell-based, SK-MEL-5, cherry-picked, set 3, MITF inhibitor project, dose response (AID 493073); type: functional;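 further: SK-MEL-5 melanoma cells with luciferase driven by the MITF target TRPM1 promoter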
T5 sequence (O75030 whole entry): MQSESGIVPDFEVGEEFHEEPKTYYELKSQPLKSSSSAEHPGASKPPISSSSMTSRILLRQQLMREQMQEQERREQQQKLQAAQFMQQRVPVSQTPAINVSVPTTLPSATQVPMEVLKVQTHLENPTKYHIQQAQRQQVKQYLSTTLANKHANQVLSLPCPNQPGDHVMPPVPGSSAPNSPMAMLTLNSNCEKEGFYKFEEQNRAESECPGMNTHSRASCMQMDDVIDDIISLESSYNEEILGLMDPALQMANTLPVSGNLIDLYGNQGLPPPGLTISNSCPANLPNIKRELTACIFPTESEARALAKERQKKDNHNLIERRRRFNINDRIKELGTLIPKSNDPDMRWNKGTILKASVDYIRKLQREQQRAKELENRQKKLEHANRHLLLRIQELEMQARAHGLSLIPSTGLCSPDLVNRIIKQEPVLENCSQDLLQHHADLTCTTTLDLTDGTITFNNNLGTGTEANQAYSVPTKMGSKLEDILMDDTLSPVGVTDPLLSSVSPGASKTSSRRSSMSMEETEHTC

INS1 = assay: INS-1E survival protection against cytokine death – cell-based, luminescence, retest, dose response (AID 449756); type: functional; settings: Rattus norvegicus;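 further: cell death triggered by IL-1 beta plus TNF-alpha plus IFN-gamma mixture; protective hits raise ATP signal compared with cytokine alone wells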
Cytochrome P450 1A2 = biological target: T6, Cytochrome P450 1A2 (Homo sapiens, UniProt P05177);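 further: PubChem cytochrome P450 panel assay, CYP1A2 panel member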
T6 sequence (P05177 whole entry): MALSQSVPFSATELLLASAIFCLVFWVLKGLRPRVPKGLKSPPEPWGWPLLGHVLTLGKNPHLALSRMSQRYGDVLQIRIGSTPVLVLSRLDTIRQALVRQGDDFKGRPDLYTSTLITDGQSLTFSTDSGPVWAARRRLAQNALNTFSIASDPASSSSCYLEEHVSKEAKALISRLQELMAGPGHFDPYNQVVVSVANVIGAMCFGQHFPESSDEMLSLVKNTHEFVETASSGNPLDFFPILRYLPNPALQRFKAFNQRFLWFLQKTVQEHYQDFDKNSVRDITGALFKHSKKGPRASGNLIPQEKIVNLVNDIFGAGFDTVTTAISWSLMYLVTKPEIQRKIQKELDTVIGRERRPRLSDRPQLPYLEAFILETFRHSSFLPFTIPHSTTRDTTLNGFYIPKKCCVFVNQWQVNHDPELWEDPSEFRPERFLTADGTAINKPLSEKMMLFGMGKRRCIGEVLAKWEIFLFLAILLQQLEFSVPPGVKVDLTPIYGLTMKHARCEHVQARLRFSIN

[11] = OVCAR-3 cell viability loss – plate reader, dry powder samples, PAX8 inhibitor project, dose response (AID 743044); type: functional, cell-based
Nonstructural protein 1 = Nonstructural protein 1 (Influenza A virus, UniProt Q194T2); type: functional, Influenza A virus (A/California/07/2009(H1N1))
Chain of Nonstructural protein 1 (Q194T2 whole entry): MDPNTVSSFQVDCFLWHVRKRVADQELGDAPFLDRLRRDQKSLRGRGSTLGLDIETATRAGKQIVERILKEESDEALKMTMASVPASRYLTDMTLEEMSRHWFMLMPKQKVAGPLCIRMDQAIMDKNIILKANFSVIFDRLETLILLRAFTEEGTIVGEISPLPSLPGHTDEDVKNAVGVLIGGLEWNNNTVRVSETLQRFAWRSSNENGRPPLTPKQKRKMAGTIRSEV

Chain of Paired box protein Pax-8 (Q06710 whole entry): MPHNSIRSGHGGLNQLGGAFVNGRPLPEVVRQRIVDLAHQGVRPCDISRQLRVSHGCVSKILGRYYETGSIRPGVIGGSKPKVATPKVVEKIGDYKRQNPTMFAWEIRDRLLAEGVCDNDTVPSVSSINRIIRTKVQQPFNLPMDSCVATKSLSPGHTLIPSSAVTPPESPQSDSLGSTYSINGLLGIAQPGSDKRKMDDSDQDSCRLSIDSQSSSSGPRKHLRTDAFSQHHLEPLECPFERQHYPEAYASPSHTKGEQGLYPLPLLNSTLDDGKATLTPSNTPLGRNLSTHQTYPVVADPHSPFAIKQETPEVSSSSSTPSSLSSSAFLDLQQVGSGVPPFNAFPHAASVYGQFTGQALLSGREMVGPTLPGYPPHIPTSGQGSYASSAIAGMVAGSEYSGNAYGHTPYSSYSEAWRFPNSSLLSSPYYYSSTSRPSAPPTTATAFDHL

Compound: Cn1cc(CN2CCCC(CNC(=O)c3ccc4c(c3)OCO4)C2)c2ccccc21 (stereo not given)
- EC50 [1]: < 100 nM (active)
- EC50 [2]: > 60 µM (not active)
- EC50 (cells [3]): 64 nM (active)

Compound: COc1ccc(-c2nn(-c3ccccc3)cc2C(=O)N/N=C/c2ccc([N+](=O)[O-])o2)cc1
- EC50 [1]: < 100 nM (active)
- EC50 [2]: > 60 µM (not active)
- EC50 (cells [3]): 38 nM (active)

Compound: CCCn1/c(=N/C(=O)c2c(-c3c(F)cccc3Cl)noc2C)c(C(=O)OCC)cc2c(=O)n3ccccc3nc21
- EC50 (cells [4]): > 350 µM (not active)
- EC50 (cells [5]): > 350 µM (not active)

Compound: O=c1cc(O)c2sc(Nc3cccc(C(F)(F)F)c3)nc2[nH]1
- IC50 [6]: > 50 µM (not active)

Compound: C[C@@H]1CCCCO[C@@H](CN(C)C(=O)Nc2ccc(F)cc2)[C@H](C)CN([C@H](C)CO)C(=O)c2cc(NS(=O)(=O)c3ccc(Cl)cc3)ccc2O1
- AC50 (Paired box protein Pax-8): 6.23 µM (active)
- AC50 [7]: 53 µM (active)
- AC50 [8]: > 70 µM (inactive)

Compound: N#Cc1c(O)nc(S)nc1-c1ccccc1
- IC50 (Leucine aminopeptidase): 15.7 µM (active)

Compound: CCN(CC)CCNS(=O)(=O)c1ccc2c3c(cccc13)C(=O)N2
- AC50 [9]: > 20 µM (inactive)

Compound: O=C(Nc1ccc2nn(-c3ccccc3)nc2c1)c1ccc2c(c1)OCO2
- IC50 (Estrogen receptor): 6.3 µM (active)

Compound: Cc1ccc(-c2c[n+](Cc3ccc(Cl)cc3)c3n2CCC3)cc1
- EC50 [1]: < 100 nM (active)
- EC50 [2]: > 30 µM (not active)
- AC50 [10]: 14.2 µM (active)
- AC50 (INS1): 5.16 µM (active)
- EC50 (cells [3]): 27 nM (active)

Compound: COc1ccc(CSCC(=O)Nc2ccc(S(=O)(=O)N3CCCCCC3)cc2)cc1
- EC50 (cells [4]): > 350 µM (not active)
- EC50 (cells [5]): > 350 µM (not active)

Compound: O=C(O)c1nn(Cc2ccc(Cl)cc2Cl)c2ccccc12 [LONIDAMINE]
- IC50 (Leucine aminopeptidase): 7.37 µM (active)
- AC50 (Cytochrome P450 1A2): 39.8 µM (inconclusive)

Compound: CCOCC(=O)Nc1cccc(C(=O)OCC)c1
- IC50 (Estrogen receptor): > 50 µM (not active)

Compound: CC1=C(C)CC(C(=O)NNC(=O)c2csc3c2CCC(C(C)(C)C)C3)C(C(=O)O)C1 (stereo not given)
- IC50 (Leucine aminopeptidase): 8.98 µM (active)

Compound: CC1CCC2(CC1)NC(=O)N(CC(=O)Nc1ccc(N3CCOCC3)cc1)C2=O (stereo not given)
- IC50 (Leucine aminopeptidase): 58.6 µM (active)

Compound: O=C1C(=O)C(Cl)=C(Cl)C(Cl)=C1Cl
- AC50 [9]: 11.2 µM (active)

Compound: C[C@@H]1CCCCO[C@@H](CN(C)Cc2ccc3c(c2)OCO3)[C@@H](C)CN([C@@H](C)CO)C(=O)c2cc(NC(=O)Nc3ccc(C(F)(F)F)cc3)ccc2O1
- AC50 (Paired box protein Pax-8): 8.56 µM (active)
- AC50 [11]: 40.3 µM (active)
- AC50 [7]: 37.4 µM (active)
- AC50 [8]: 44 µM (active)

Compound: CCOc1ccc(NC2=C(OC)C(=O)c3ccccc3C2=O)cc1
- IC50 (Nonstructural protein 1): 7.02 µM (active)
- AC50 [9]: 6.18 µM (active)

Compound: Cc1ccc(NC2SC(=O)N(Cc3cccc(C(=O)O)c3)C2=O)cc1 (stereo not given)
- IC50 (Leucine aminopeptidase): 6.86 µM (active)
